Here are results for one compound from patent US11000501B2, “Composition for preventing or treating neurological and mental disorders, containing syringaresinol” (SEOUL NATIONAL UNIVERSITY R&DB FOUNDATION, priority 2016, dated 2021).

A short description of experiment [1]: Open field test. The format is in vivo, mouse. The note with it: 10 mg/kg intraperitoneally, test 30 minutes after injection, 30-minute test. How it is done: All experiments were performed using male and female C57BL/6 mice of 4 to 6 weeks of age. An open field test was performed on male mice of 6 to 7 weeks. Animals were maintained with circulating 12/12-h day/night, while daytime starts at 07:00. Three or five animals were housed per one cage. Free available food and water were fed to the mice under specific pathogenic-microorganism free (SPF) conditions. The animal maintenance protocol and all experimental procedures were approved by the Institutional Animal Care and Use Committee (IACUC) of Seoul National University.
In an open field test, we video-recorded a movement of a 7 to 10-week-old mouse in a white plastic chamber (40×40×40 cm) in a darkened room for 30 minutes. Then, the moving distance of the mouse was measured using Ethovision XT (Noldus) software.
To determine the change of the activity of the mice by syringaresinol, we injected syringaresinol at a concentration of 10 mg/kg intraperitoneally into the mice. After 30 minutes, we measured the activity of the mice via an open field test. In this connection, control was injected with DMSO, a solvent used for dissolving syringaresinol. The open field test was conducted for 30 minutes. The activity of the mouse was checked at a 5-minute interval. Further, during the 30-minute test, the total movement distance of the mouse was measured.

For experiment [2], the system named is hippocampal CA1 region. Description: Picrotoxin-induced epilepsy activity in intact hippocampal slices. The following applies: picrotoxin 50 μM. It counts as cell-based, mouse. The procedure:
Selective inhibition of excitatory synaptic transmission rather than inhibitory synapse transmission means that SYR may change the balance between synapse excitation and inhibition in neurons. We checked whether this synapse regulation might inhibit epilepsy pathogenic activity caused by excessive excitement of the neural network. To model an epilepsy pathogenic neuron network in experimental conditions (in vitro), the hippocampal slice was prepared while the CA3 region was left. During recording, ACSF containing picrotoxin (50 μM) was perfused in intact hippocampal slices. […] Continuous picrotoxin perfusion (>20 min) discharged an epilepsy pathogenic excitation wave. This wave was characterized by a three to seven population spikes (PS) waveform of a decreasing amplitude (FIG. 7C).

The subject of experiment [3] is Ca^2+ channel in CA1 neurons. Description: Ca2+ channel current (Ba2+ current) recording in CA1 neurons. The following applies: 100 μM; depolarization −90 mV to −10 mV, 50 ms. The format is cell-based, mouse.
Experiment [4] has as its system NMDAR-EPSC in CA1 neurons. Description: NMDAR-mediated EPSC recording in CA1 neurons. The note with it: −40 mV; NBQX and picrotoxin present; 100-ms interval. It counts as cell-based, mouse. How it is done: (§1) To measure evoked excitatory post-synaptic current (eEPSC), the synapse potential was recorded using a patch pipette (3 to 4Mohm) via the membrane voltage clamp technique. The patch pipette contained a solution containing 100 mM CsMeSO4, 10 mM TEA-Cl, 20 mM CsCl, 8 mM NaCl, 10 mM HEPES, 0.5 mM QX-314-Cl, 4 mM Mg-ATP, 0.3 mM Na-GTP and 10 mM EGTA and having pH 7.25 and 290 mOsm/kg. EPSC was measured at a frequency of 0.05 Hz. The synaptic current was induced using a glass pipette (0.3 to 0.5 Mohm). GABAA receptor (GABAAR) antagonist picrotoxin (50 μM) was added to ACSF.

The test system of experiment [5] is AMPAR-EPSC in CA1 neurons. Description: AMPAR-mediated EPSC whole-cell patch clamp in CA1 neurons. The format is cell-based, mouse. The procedure:
as §1
Thus, it was necessary to check the effect of SYR on desensitization of AMPAR in CA1 neurons. The whole-cell patch clamp technique was used in the presence of NMDAR blocker AP-5 and GABAA receptor blocker picrotoxin (PTX, 50 μM).
To confirm this assumption, we examined the effect of SYR on AMPAR-EPSC by injecting, as the actin-stabilizer, jasplakinolide (2 μM) into the patch pipette solution (FIG. 3H to FIG. 3J).
Furthermore, we checked whether post-synaptic loading of SYR regulates AMPAR-EPSC. We measured AMPAR-EPSC for 25 minutes immediately after cell membrane-punching using a K+-based pipette solution. […] If the post-synaptic loading of SYR affects AMPAR-EPSC, gradual diffusion of SYR from the pipette solution should inhibit AMPAR-EPSC.
(§2) Previous studies have shown that the secretion probability is regulated by the size of the readily releasable pool (RRP) of hippocampal neurons. Therefore, RRP was measured before and after treatment with SYR (100 μM). A high-frequency train (20 Hz) composed of more than 60 stimuli was prepared. 80 stimuli at 20 Hz was applied to completely remove RRP from the SC-CA1 synapse. RRP size was measured by cumulative amplitude analysis (Stevens and Williams, 2007; Wesseling and Lo, 2002).
A general note: In patch-clamp work, channel activity is measured electrically.

Experiment [6] deals with SC-CA1 synapse synaptic vesicle pool. The experiment can be described thus: Readily releasable pool (RRP) size by cumulative amplitude analysis, 20 Hz train. It counts as cell-based, mouse. The note with it: 100 μM; 80 stimuli at 20 Hz. The procedure: as §2, with “2002). In the presence of AP-5 and picrotoxin, SYR inhibited AMPAR-EPSC (FIG. 5A and FIG. 5B). […] An extent by which RRP size is reduced was very close to an extent by which synapse is inhibited (FIG. 5B and FIG. 5F). […] This means that a decrease in RRP size may lead to the SYR-induced synapse decrease.” for “2002).”

Molecules are shown by their SMILES.

For the compound `COc1cc(C2OCC3C(c4cc(OC)c(O)c(OC)c4)OCC23)cc(OC)c1O` (centres unmarked) [SYR, syringaresinol], the “activity of the mouse as fraction of control (movement distance)” value in experiment [1] is on record as “¼”. Also, in experiment [2], the “amplitude of first epilepsy pathological excitation wave (first PS)” value is “decreased”, the “area of the epilepsy pathological fEPSP (population spike)” value is reported as “decreased”, the “epilepsy pathological excitation wave” value was “significantly inhibited” and the “slope of fEPSP in epilepsy-induced hippocampal slice” value is on record as “rapidly reduced”. Moreover, the “Ba^2+ current mediated by the Ca^2+ channel” value in experiment [3] is on record as “rapidly reduced”. Further, the “NMDAR-EPSC induced by paired-pulse stimulation” value in experiment [4] is on record as “significantly inhibited”. The AMPAR-EPSC result in experiment [5] (100 μM, AP-5 and picrotoxin present) is recorded as “inhibited”. In addition, the “excitatory post-synaptic current (EPSC) amplitude” value in experiment [5] (fixed potential of −70 mV, AP-5 and picrotoxin 50 μM present) is “significantly reduced”. Further, the “time constant of EPSC reduction (decay)” value in experiment [5] (−70 mV) is “did not affect”. For the same compound, in experiment [6], the RRP size result was “significant decrease”.
